Holding throughout (assay type): cell-based
The test system of data set [1] is parental and DR cell lines (PC3 and DU145). As to the kind of experiment: Cytotoxic activity in parental and DR prostate cancer cell lines. Conditions: for cytotoxic activity (anti-cancer effects): general statement; for cytotoxicity compared with the other compounds of the ten: in vitro cytotoxicity and anti-proliferative data in docetaxel resistant PCa cell lines; for cell viability: parental and DR cell lines (PC3 and DU145). An excerpt: Out of the initial ten compounds, two target-to-hit specific ligands were identified, BT-768 and BT-772, from the diazaborine-based pharmacophore group and 2-Chloro substituted acetamide derivatives. BT-768 and BT-772 were selected for further studies based on their in vitro cytotoxicity and anti-proliferative data in docetaxel resistant PCa cell lines (see FIG. 3A and FIG. 3B, and FIG. 4A and FIG. 4B). […] The boron-based ligands BT-768 and BT-772 cytotoxic activity in parental and DR cell lines (PC3 and DU145) were then measured.
(§1) FIG. 3A and FIG. 3B, for example, are graphical representations of 3-(4,5-dimethylthiazol-2-yl)-2,5-diphenyl-2H-tetrazolium bromide MTT assay-based dose response curve for the ligand BT-772. FIG. 3A and FIG. 3B represent the average of three independent experiments in triplicates normalized to untreated control assays. As shown in FIG. 3A and FIG. 3B, cell viability was measured by MTT assay. In FIG. 3A, PC3 and PC3-DR cells were treated with increasing concentrations of BT-772 for twenty-four hours.
(§2) In FIG. 3B, DU145 and DU145-DR cells were treated with increasing concentrations of BT-772 for twenty-four hours.

Data set [2] deals with PC3-DR (taxane resistant variant of PC3). As to the kind of experiment: MTT assay cell viability, PC3-DR. To be noted: PC3-DR cells, twenty-four hours, read-out: IC50 (drug concentration causing 50% inhibition), cytotoxic activity.
Excerpt: (§3) FIG. 3A is a graphical representation of 3-(4,5-dimethylthiazol-2-yl)-2,5-diphenyl-2H-tetrazolium bromide (MTT) assay-based dose response curve for the ligand BT-772 in the PC3 prostate cancer cell line and its taxane resistant variant PC3-DR, in accordance with an embodiment of the disclosure.
as §1
Background: Tetrazolium assays rely on reduction of a dye to a coloured formazan, in cell work by metabolically active cells.

For another data set, the system named is DU145-DR cells. As to the kind of experiment: Clonogenic assay, DU145-DR. To be noted: DU145-DR cells growing as colonies. The protocol:
(§4) FIG. 4B is a photographic image of a clonogenic assay-based dose response for the ligand BT-772 in the DU145 and DU145-DR cell lines, in accordance with an embodiment of the disclosure.
(§5) FIG. 4A and FIG. 4B, for example, show images of clonogenic assays, used primarily to determine cancer cell colony formation capacity and proliferation. In FIG. 4A, PC3 and PC3-DR cells were grown at low density in 6-well plates and allowed to form clones for 10 days.
(§6) In FIG. 4B, DU145 and DU145-DR cells growing as colonies were treated with low micromolar concentrations of BT-772 and clonogenicity was noticeable inhibited at concentrations above 3 μM in DU145 cells and at concentrations above 1 μM in DU145-DR cells.

Data set [3] deals with PC3 prostate cancer cell line. As to the kind of experiment: MTT assay cell viability, PC3. Conditions: Homo sapiens, PC-3, PC3 cells, twenty-four hours, read-out: IC50 (drug concentration causing 50% inhibition), cytotoxic activity.
Excerpt: as §3, §1

The test system of a further data set is PC3-DR cells. As to the kind of experiment: Clonogenic assay, PC3-DR. To be noted: 6-well plates, 10 days. The protocol: FIG. 4A is a photographic image of a clonogenic assay-based dose response for the ligand BT-772 in the PC3 and PC3-DR cell lines, in accordance with an embodiment of the disclosure.
as §5

Data set [4] has as its system DU145 prostate cancer cell line. As to the kind of experiment: MTT assay cell viability, DU145. Conditions: Homo sapiens, DU-145, DU145 cells, twenty-four hours, read-out: IC50, cytotoxic activity.
Excerpt: (§7) FIG. 3B is a graphical representation of 3-(4,5-dimethylthiazol-2-yl)-2,5-diphenyl-2H-tetrazolium bromide MTT assay-based dose response curve for the ligand BT-772 in the DU145 prostate cancer cell line and its taxane resistant variant DU145-DR, in accordance with an embodiment of the disclosure.
as §1, §2

Data set [5] relates to DU145-DR (taxane resistant variant of DU145). As to the kind of experiment: MTT assay cell viability, DU145-DR. To be noted: Homo sapiens, DU-145, DU145-DR cells, twenty-four hours, read-out: IC50, cytotoxic activity.
Excerpt: as §7, §1, §2

The subject of a further data set is DU145 cells. As to the kind of experiment: Clonogenic assay, DU145. To be noted: DU145 cells growing as colonies. As to the method: as §4, §5, §6

The values that follow come from US20260183322A1, “BORON-BASED ENOLASE LIGANDS AND METHODS OF USE FOR TREATMENT OF CANCER” (LOMA LINDA UNIVERSITY, priority 2022, published 2026).

Take `N#Cc1ccc(B2Nc3ccccc3-c3nc4ccccc4n32)s1` [BT-768, 5-(benzo[e]benzo[4,5]imidazo[1,-c][1,3,2]diazaborinin-6 (5H)-yl)thiopene-2-carbonitrile]: in data set [1], the “cytotoxic activity (anti-cancer effects)” value is “low μM cytotoxic activity”, the “cytotoxicity compared with the other compounds of the ten” value is recorded as “higher cytotoxic than the other eight compounds” and the cell viability result is recorded as “dose-dependent reduction in cell viability”.
In the case of `Cc1ccc(CN(C(=O)CCl)c2cccc(B3OC(C)(C)C(C)(C)O3)c2)cc1` [BT-772, 2-chloro-N-(4-methylbenzyl)-N-(3-(4,4,5,5-tetramethyl-1,3,2-dioxaborolan-2-yl)phenyl) acetamide], the IC50 in data set [2], in data set [3], in data set [4] and in data set [5] was 5 to 10 µM in each case. In addition, the entries for the “concentration above which clonogenicity was noticeably inhibited” value in the data set on DU145-DR cells, in the data set with PC3-DR cells and in the data set on DU145 cells were “above 1 μM”, “above 3 M” and “above 3 μM”, respectively. In addition, in data set [1], the “cytotoxic activity (anti-cancer effects)” value is on record as “low μM cytotoxic activity”. For the same molecule, the “cytotoxicity compared with the other compounds of the ten” value in data set [1] is recorded as “higher cytotoxic than the other eight compounds”. Besides, the cell viability result in data set [1] is reported as “dose-dependent reduction in cell viability”.
